We go through one molecule from BindingDB's records for PubMed 7903385 (Creighton University, 1993).

The test has as its target T1, Alpha-2A adrenergic receptor (Sus scrofa, UniProt P18871).
T1 sequence (P18871 whole entry): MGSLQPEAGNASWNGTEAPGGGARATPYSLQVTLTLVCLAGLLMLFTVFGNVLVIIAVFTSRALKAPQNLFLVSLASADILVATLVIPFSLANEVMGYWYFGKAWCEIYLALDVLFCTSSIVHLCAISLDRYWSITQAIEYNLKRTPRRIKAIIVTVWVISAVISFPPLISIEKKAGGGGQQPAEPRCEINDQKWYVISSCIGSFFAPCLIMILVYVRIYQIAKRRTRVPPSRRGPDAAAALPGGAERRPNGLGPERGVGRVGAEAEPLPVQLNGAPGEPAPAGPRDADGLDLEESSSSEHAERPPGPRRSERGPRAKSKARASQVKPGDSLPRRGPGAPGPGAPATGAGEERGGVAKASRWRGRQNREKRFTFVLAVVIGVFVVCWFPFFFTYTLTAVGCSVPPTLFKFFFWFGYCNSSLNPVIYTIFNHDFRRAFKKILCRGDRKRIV

Molecules are shown by their SMILES.

Usually Ki stands for the equilibrium dissociation constant of an inhibitor or competing ligand from its target. A low value points to tighter binding. For the molecule `C=Cc1sc2ccc(Cl)c3c2c1CN(C)CC3` [SKF 104856], the Ki amounted to 54.5 nM. This counts as double-digit nanomolar.
